US10766864B2, “Morphinan derivatives for the treatment of neuropathic pain” (Nektar Therapeutics, priority 2015, dated 2020)
Read-outs that look alike come from different tables or passages of the source.

Key:
NMDA receptor = assay: Competitive radioligand binding at NMDA receptor ([3H] MK801), rat forebrain membranes; conditions: 0.2 nM [3H] MK801, reflects free base activity
Experimental: (§1) Receptor Binding at MOR and NMDA.
(§2) Affinities of various compounds were measured in vitro using competitive radioligand binding assays. Serial dilutions of test compounds were incubated with membranes prepared from CHO-K1 cells expressing the mu opioid receptor (MOR; for opioid receptor binding) or rat forebrain membranes (for NMDA receptor binding). 2 nM [^3H] Naloxone (MOR) or 0.2 nM [^3H] MK801 (NMDA) were used as the specific, competitive radioligands. 10 uM Naloxone (MOR), or 10 uM MK801 (NMDA) was used to determine non-specific binding. Bound radioactivity was measured using a scintillation counter & IC50 values for test compounds were determined by non-linear regression analysis using a one-site competition model (Graph Pad Prizm). Due to each test compound being solubilized in a buffered system for the assay, the results presented herein reflect the free base activity.

mu opioid receptor (MOR) = mu opioid receptor (MOR) (Homo sapiens (Human), UniProt P35372); assay: Competitive radioligand binding at MOR ([3H] Naloxone)
Experimental: as §1, §2

[1] = membranes from CHO-K1 cells expressing MOR, 2 nM [3H] Naloxone, reflects free base activity, read-out: MOR IC50

## COCCOCCOCC(=O)Nc1nc2cc3c(cc2s1)C[C@@H]1[C@@H]2CCCC[C@]32CCN1C [Compound 68, 2-[2-(2-methoxyethoxy)ethoxy]-N— [(4aR,5R,11bR)-14-methyl-2,3,4,4a,5,6-hexahydro-1H-5,11b-(epiminoethano)phenanthro[3,2-d][1,3]thiazol-9-yl]acetamide]
NMDA receptor
  IC50: 1000 to 10000 nM
Mu opioid receptor (MOR); [1]
  IC50: > 1000 nM

## COCCOCCOCCNc1nc2cc3c(cc2s1)C[C@@H]1[C@@H]2CCCC[C@]32CCN1C [Compound 71, (4aR,5R,11bR)—N-(2-(2-(2-methoxyethoxy)ethoxy)ethyl)-14-methyl-2,3,4,4a,5,6-hexahydro-1H-5,11b-(epiminoethano)phenanthro[3,2-d]thiazol-9-amine]
NMDA receptor
  IC50: 1000 to 10000 nM
Mu opioid receptor (MOR); [1]
  IC50: 100 to 1000 nM

## COCCNC(=O)Nc1nc2cc3c(cc2s1)C[C@@H]1[C@@H]2CCCC[C@]32CCN1C [Compound 72, 1-(2-methoxyethyl)-3-((4aR,5R,11bR)-14-methyl-2,3,4,4a,5,6-hexahydro-1H-5,11b-(epiminoethano)phenanthro[3,2-d]thiazol-9-yl)urea]
NMDA receptor
  IC50: > 10000 nM
Mu opioid receptor (MOR); [1]
  IC50: > 1000 nM

## COCCOc1cc2c(cc1O)[C@@]13CCCCC1[C@@H](C2)N(C)CC3 (stereo partly drawn) [Compound 73, 2-(2-methoxyethoxy)-17-methylmorphinan-3-ol]
NMDA receptor
  IC50: 1000 to 10000 nM
Mu opioid receptor (MOR)
  IC50: 100 to 1000 nM

## COCCOc1cc(O)cc2c1C[C@@H]1[C@@H]3CCCC[C@]23CCN1C [Compound 74, 1-(2-methoxyethoxy)-17-methylmorphinan-3-ol]
NMDA receptor
  IC50: > 10000 nM
Mu opioid receptor (MOR); [1]
  IC50: > 1000 nM

## COCCOCCOCCO[C@H]1CCC[C@H]2[C@H]3Cc4ccc(O)cc4[C@@]12CCN3C [Compound 75, (5α)-5-{2-[2-(2-methoxyethoxy)ethoxy]ethoxy}-17-methylmorphinan-3-ol]
NMDA receptor
  IC50: > 10000 nM
Mu opioid receptor (MOR); [1]
  IC50: 10 to 100 nM

## COCCNc1cc2c(cc1[N+](=O)[O-])C[C@@H]1[C@@H]3CCCC[C@]23CCN1C [Compound 76, N-(2-methoxyethyl)-17-methyl-2-nitromorphinan-3-amine]
NMDA receptor
  IC50: > 10000 nM
Mu opioid receptor (MOR); [1]
  IC50: > 1000 nM

## COCCOCCOCCOCCOCCNc1nc2ccc3c(c2s1)[C@@]12CCCC[C@H]1[C@@H](C3)N(C)CC2 [Compound 77, (7R,7aR,11aR)—N-(2,5,8,11,14-pentaoxahexadecan-16-yl)-14-methyl-7,7a,8,9,10,11-hexahydro-6H-7,11a-(epiminoethano)phenanthro[3,4-d]thiazol-2-amine]
NMDA receptor
  IC50: > 10000 nM
Mu opioid receptor (MOR); [1]
  IC50: > 1000 nM

## COCCOCCOCCNc1nc2ccc3c(c2s1)[C@@]12CCCC[C@H]1[C@@H](C3)N(C)CC2 [Compound 78, (7R,7aR,11aR)—N-(2-(2-(2-methoxyethoxy)ethoxy)ethyl)-14-methyl-7,7a,8,9,10,11-hexahydro-6H-7,11a-(epiminoethano)phenanthro[3,4-d]thiazol-2-amine]
NMDA receptor
  IC50: > 10000 nM
Mu opioid receptor (MOR); [1]
  IC50: > 1000 nM

## COCCOCCC(=O)Nc1ccc2c(c1)[C@@]13CCCC[C@H]1[C@@H](C2)N(C)CC3 [Compound 79, 3-(2-methoxyethoxy)-N-((4bR,8aR,9R)-11-methyl-6,7,8,8a,9,10-hexahydro-5H-9,4b-(epiminoethano)phenanthren-3-yl)propanamide]
NMDA receptor
  IC50: > 10000 nM
Mu opioid receptor (MOR); [1]
  IC50: > 1000 nM

## COCCOCCOCCOCCOCCCC(=O)Nc1nc2cc3c(cc2s1)C[C@@H]1[C@@H]2CCCC[C@]32CCN1C [Compound 80, N-[(4aR,5R,11bR)-14-methyl-2,3,4,4a,5,6-hexahydro-1H-5,11b-(epiminoethano)phenanthro[3,2-d][1,3]thiazol-9-yl]-2,5,8,11,14-pentaoxaoctadecan-18-amide]
NMDA receptor
  IC50: 1000 to 10000 nM
Mu opioid receptor (MOR); [1]
  IC50: > 1000 nM

## CN1CC[C@]23CCCC[C@H]2[C@H]1Cc1cc2nc[nH]c2cc13 [Compound 81, (4aR,5R,11bR)-14-methyl-1,2,3,4,4a,5,6,10-octahydro-5,11b-(epiminoethano)phenanthro[2,3-d]imidazole]
NMDA receptor
  IC50: > 10000 nM
Mu opioid receptor (MOR)
  IC50: 10 to 100 nM

## CN1CC[C@]23CCCC[C@H]2[C@H]1Cc1cc2nc(N)[nH]c2cc13 [Compound 82, (4aR,5R,11bR)-14-methyl-1,2,3,4,4a,5,6,10-octahydro-5,11b-(epiminoethano)phenanthro[2,3-d]imidazol-9-amine]
NMDA receptor
  IC50: > 10000 nM
Mu opioid receptor (MOR); [1]
  IC50: 100 to 1000 nM

## CN1CC[C@]23CCCC[C@H]2[C@H]1Cc1cc2sc(NC(=N)N)nc2cc13 [Compound 84, 1-((4aR,5R,11bR)-14-methyl-2,3,4,4a,5,6-hexahydro-1H-5,11b-(epiminoethano)phenanthro[3,2-d]thiazol-9-yl)guanidine]
NMDA receptor
  IC50: 1000 to 10000 nM
Mu opioid receptor (MOR); [1]
  IC50: 100 to 1000 nM

## CN1CC[C@]23CCCC[C@H]2[C@H]1Cc1cc2sc(NC(=O)C4CCN(C(=O)OC(C)(C)C)CC4)nc2cc13 [Compound 85, tert-butyl 4-{[(4aR,5R,11bR)-14-methyl-2,3,4,4a,5,6-hexahydro-1H-5,11b-(epiminoethano)phenanthro[3,2-d][1,3]thiazol-9-yl]carbamoyl}piperidine-1-carboxylate]
NMDA receptor
  IC50: > 10000 nM
Mu opioid receptor (MOR); [1]
  IC50: > 1000 nM

## COCCN1CC[C@]23CCCC[C@H]2[C@H]1Cc1ccc(Nc2cccnc2)cc13 [Compound 86, 17-(2-methoxyethyl)-N-(pyridin-3-yl)morphinan-3-amine]
NMDA receptor
  IC50: 1000 to 10000 nM
Mu opioid receptor (MOR)
  IC50: 0.1 to 10 nM

## Oc1ccc2c(c1)[C@@]13CCCC[C@H]1[C@@H](C2)N(C1COC1)CC3 [Compound 87, 17-(oxetan-3-yl)morphinan-3-ol]
NMDA receptor
  IC50: > 10000 nM
Mu opioid receptor (MOR); [1]
  IC50: > 1000 nM

## Oc1ccc2c(c1)[C@@]13CCCC[C@H]1[C@@H](C2)N(CC1COC1)CC3 [Compound 88, 17-(oxetan-3-ylmethyl)morphinan-3-ol]
NMDA receptor
  IC50: 1000 to 10000 nM
Mu opioid receptor (MOR)
  IC50: 10 to 100 nM

## CN1CC[C@]23CCCC[C@H]2[C@H]1Cc1cc2cccnc2cc13 [Compound 89, (4aR,5R,12bR)-15-methyl-2,3,4,4a,5,6-hexahydro-1H-5,12b-(epiminoethano)naphtho[2,1-g]quinoline]
NMDA receptor
  IC50: 1000 to 10000 nM
Mu opioid receptor (MOR); [1]
  IC50: 100 to 1000 nM

## CN1CC[C@]23Cc4nc(N)sc4C[C@H]2[C@H]1Cc1ccc(O)cc13 [Compound 90, (6R,6aR,11aS)-9-amino-14-methyl-6,6a,7,11-tetrahydro-5H-6,11a-(epiminoethano)phenanthro[3,2-d]thiazol-2-ol]
NMDA receptor
  IC50: > 10000 nM
Mu opioid receptor (MOR)
  IC50: 10 to 100 nM

## Oc1ccc2c(c1)[C@@]13CCCC[C@H]1[C@@H](C2)N(CC1CCO1)CC3 (stereo partly drawn) [Compound 91, 17-(oxetan-2-ylmethyl)morphinan-3-ol]
NMDA receptor
  IC50: 1000 to 10000 nM
Mu opioid receptor (MOR)
  IC50: 0.1 to 10 nM

## COCCNC(=N)Nc1nc2cc3c(cc2s1)C[C@@H]1[C@@H]2CCCC[C@]32CCN1C [Compound 92, 1-(2-methoxyethyl)-3-((4aR,5R,11bR)-14-methyl-2,3,4,4a,5,6-hexahydro-1H-5,11b-(epiminoethano)phenanthro[3,2-d]thiazol-9-yl)guanidine]
NMDA receptor
  IC50: > 10000 nM
Mu opioid receptor (MOR); [1]
  IC50: 100 to 1000 nM

## COCCN1CC[C@]23CCCC[C@H]2[C@H]1Cc1ccc(Nc2ccncc2)cc13 [Compound 93, 17-(2-methoxyethyl)-N-(pyridin-4-yl)morphinan-3-amine]
NMDA receptor
  IC50: 0.1 to 100 nM
Mu opioid receptor (MOR)
  IC50: 10 to 100 nM

## CN1CC[C@]23CCCC[C@H]2[C@H]1Cc1cc2ncc(N)nc2cc13 [Compound 94, (4aR,5R,12bR)-15-methyl-2,3,4,4a,5,6-hexahydro-1H-5,12b-(epiminoethano)naphtho[1,2-g]quinoxalin-10-amine]
NMDA receptor
  IC50: 100 to 1000 nM
Mu opioid receptor (MOR); [1]
  IC50: > 1000 nM

## CN1CC[C@]23CCCC[C@H]2[C@H]1Cc1cc2nnc(N)nc2cc13 [Compound 95, (4aR,5R,12bR)-15-methyl-2,3,4,4a,5,6-hexahydro-1H-5,12b-(epiminoethano)phenanthro[3,2-e][1,2,4]triazin-10-amine]
NMDA receptor
  IC50: 1000 to 10000 nM
Mu opioid receptor (MOR); [1]
  IC50: > 1000 nM

## COCCOCCN1CC[C@]23CCCC[C@H]2[C@H]1Cc1ccc(N)cc13 [Compound 96, (4bR,8aR,9R)-11-(2-(2-methoxyethoxy)ethyl)-6,7,8,8a,9,10-hexahydro-5H-9,4b-(epiminoethano)phenanthren-3-amine]
NMDA receptor
  IC50: > 10000 nM
Mu opioid receptor (MOR); [1]
  IC50: > 1000 nM

## COCCOCCN1CC[C@]23CCCC[C@H]2[C@H]1Cc1ccc(Nc2ccncc2)cc13 [Compound 98, 17-[2-(2-methoxyethoxy)ethyl]-N-(pyridin-4-yl)morphinan-3-amine]
NMDA receptor
  IC50: 100 to 1000 nM
Mu opioid receptor (MOR)
  IC50: 100 to 1000 nM

## COCCOCCN1CC[C@]23CCCC[C@H]2[C@H]1Cc1ccc(Nc2ccnnc2)cc13 [Compound 99, (4bR,8aR,9R)-11-(2-(2-methoxyethoxy)ethyl)-N-(pyridazin-4-yl)-6,7,8,8a,9,10-hexahydro-5H-9,4b-(epiminoethano)phenanthren-3-amine]
NMDA receptor
  IC50: 1000 to 10000 nM
Mu opioid receptor (MOR); [1]
  IC50: > 1000 nM

## COCCOCCN1CC[C@]23CCCC[C@H]2[C@H]1Cc1ccc(-c2cn[nH]c2)cc13 [Compound 100, (4bR,8aR,9R)-11-(2-(2-methoxyethoxy)ethyl)-3-(1H-pyrazol-4-yl)-6,7,8,8a,9,10-hexahydro-5H-9,4b-(epiminoethano)phenanthrene]
NMDA receptor
  IC50: 1000 to 10000 nM
Mu opioid receptor (MOR); [1]
  IC50: > 1000 nM

## CN1CC[C@]23CCCC[C@H]2[C@H]1Cc1cc2ccc(N)nc2cc13 [Compound 101, (4aR,5R,12bR)-15-methyl-2,3,4,4a,5,6-hexahydro-1H-5,12b-(epiminoethano)naphtho[2,1-g]quinolin-10-amine]
NMDA receptor
  IC50: 1000 to 10000 nM
Mu opioid receptor (MOR); [1]
  IC50: 10 to 100 nM
